From publication PMC6646369, “A new bioavailable fenretinide formulation with antiproliferative, antimetabolic, and cytotoxic effects on solid tumors” (Cell Death & Disease, 2019)
In brackets after ≈: the same amount, converted by molar mass.

Tests used:
[1] = Aqueous solubility of fenretinide (saturation in water, spectrophotometric at 360 nm); assay type: physicochemical; conditions: water at 25 °C; read-out: Solubility in H2O
Procedure: The first step of NanoFEN preparation involved fenretinide salification to raise its aqueous solubility to the extent required for complexation with cyclodextrins. […] The complex was analyzed by ^1H-NMR to detect the presence of chemical shift changes with respect to the free drug as indicators of fenretinide inclusion into the cyclodextrin hydrophobic cavity. […] The ^1H-NMR spectra were recorded by an Inova 600 MHz High Resolution NMR Spectrometer. The amount of fenretinide incorporated into the complex was spectrophotometrically determined in solutions obtained by dissolving known amounts of the solid complex in a water:ethanol (1:1, v-v) mixture with the aim to dissociate the drug from the complex and maintain its solubilization in the aqueous phase in the presence of ethanol. The hydro-alcoholic solutions were analyzed for their fenretinide content at the maximum wavelength of the fenretinide absorption (360 nm). The aqueous solubility of fenretinide complexed with 2-hydroxypropyl-β-cyclodextrin was measured in comparison with the pure drug. […] After filtration the saturated solutions were spectrophotometrically analysed at 360 nm for their fenretinide content.

[2] = Plasma pharmacokinetics of fenretinide in mice; assay type: in vivo, CD1 female mice
Procedure: The experiments were performed in CD1 female mice, 7 weeks of age, (body weight 25 ± 2 g) obtained from Envigo RMS SrL (Udine, Italy). Mice were maintained under specific-pathogen-free conditions with constant temperature and humidity, according to the institutional guidelines of the Istituto Superiore di Sanità Animal Care Committee. Animal experimentation was conducted in conformance with the following laws, regulations, and policies governing the care and use of laboratory animals: Italian Governing Law (D. l. 26/2014; Authorization n.19/2008-A issued March 6, 2008 by the Ministry of Health). The pharmacokinetics of NanoFEN, administered by oral or intravenous route, was investigated in mice receiving the formulation at doses corresponding to 5 mg/kg of fenretinide. The intravenous administration was carried out by injection in the tail vein of an intravenous bolus of NanoFEN dissolved in water or PureFEN suspended in a mixture of ethanol 10 % in saline as a comparison. For the oral administration the mice were gavaged the with NanoFEN dissolved in water or with the reconstituted content of the NCI capules, i.e., fenretinide (100 mg) in corn oil (704 mg) and Polysorbate 80 (60 mg) as a comparison. After the intravenous or oral treatments, a series of blood samples were taken at 15 and 30 min and at 1, 2, 4, 8, 10, 24 and 48 h. Blood was collected in heparinized tubes from the retro-orbital plexus of the mice under isoflurane anesthesia. To obtain plasma, blood samples were centrifuged at 4000 rpm for 10 min at 4 °C. The samples were stored at −20 °C until analysis. The total concentration of fenretinide in plasma of mice was determined according to a method previously described. Briefly, aliquot of 200 μl of each plasma sample was added to 400 μl of Acetonitrile (CH3CN) containing 125 μg/mL Butylated hydroxytoluene (BHT), and the mixture was vortexed and centrifuged to pellet the precipitated proteins. The recovered supernatants were analysed on a liquid chromatograph (Perkin-Elmer, Norwall, CT) fitted with a C18 (50 mm × 2.0 mm, 5 μm) reverse-phase column and a C18 precolumn (Perkin-Elmer, Milan, Italy). The mobile phase consisted of CH3CN:H2O:CH3COOH (75:2:2, v:v:v) delivered at a flow rate of 2 mL/min. Detection was carried out with a Perkin-Elmer LC95 absorbance detector at 362 nm. N-(4-ethoxyphenyl)-retinamide (EPR) was used as internal standard. For the quantitative evaluation, reference standard curves were set up in control mouse plasma with different known amounts of NanoFEN or PureFEN. The measured fenretinide concentration-vs-time data were elaborated by non-compartmental analysis (WinNonLin software v3) to obtain the main pharmacokinetic parameters of NanoFEN.

[3] = mouse, iv, CD1 female mice, 5 mg/Kg fenretinide, plasma
[4] = mouse, plasma, iv, CD1 female mice, 5 mg/Kg fenretinide

For `CC1=C(/C=C/C(C)=C/C=C/C(C)=C/C(=O)Nc2ccc(O)cc2)C(C)(C)CCC1` [PureFEN, N-(4-Hydroxyphenyl) retinamide], the solubility at 12 h [1] was 1.71 µg/mL (≈ 4.37 µM), the HL ([2]; CD1 female mice, 5 mg/Kg fenretinide, i.v.) was 7.87 h and the AUC ([2]; female, CD1, mouse, iv, Fig. 1e, single administration of 5 mg/kg, plasma) was 6570 ng·h/mL. The AUC(0-inf) [2, 3] was 6570 ng·h/mL, the AUC(0-t) [2, 3] was 6420 ng·h/mL and the Cmax [2, 3] was 4130 ng/mL. It also gave a Vd [2, 4] of 6.52 L/kg, a clearance [2, 4] of 9.57 mL/min/kg and a k el ([2]; mouse, plasma, iv, CD1 female mice, 5 mg/Kg fenretinide, i.v., read-out: Ke (converted)) of 2.44e-05 s⁻¹.
